The experiment addresses dipeptidyl peptidase (DPP-IV) (Homo sapiens, UniProt P27487). Briefly: DPP-IV inhibitory activity (statement only). The class given is biochemical. As to conditions: metabolite of compound (A); statement without data.

SMILES strings stand for the structures.

Chain of dipeptidyl peptidase (DPP-IV) (P27487 whole entry, species assumed): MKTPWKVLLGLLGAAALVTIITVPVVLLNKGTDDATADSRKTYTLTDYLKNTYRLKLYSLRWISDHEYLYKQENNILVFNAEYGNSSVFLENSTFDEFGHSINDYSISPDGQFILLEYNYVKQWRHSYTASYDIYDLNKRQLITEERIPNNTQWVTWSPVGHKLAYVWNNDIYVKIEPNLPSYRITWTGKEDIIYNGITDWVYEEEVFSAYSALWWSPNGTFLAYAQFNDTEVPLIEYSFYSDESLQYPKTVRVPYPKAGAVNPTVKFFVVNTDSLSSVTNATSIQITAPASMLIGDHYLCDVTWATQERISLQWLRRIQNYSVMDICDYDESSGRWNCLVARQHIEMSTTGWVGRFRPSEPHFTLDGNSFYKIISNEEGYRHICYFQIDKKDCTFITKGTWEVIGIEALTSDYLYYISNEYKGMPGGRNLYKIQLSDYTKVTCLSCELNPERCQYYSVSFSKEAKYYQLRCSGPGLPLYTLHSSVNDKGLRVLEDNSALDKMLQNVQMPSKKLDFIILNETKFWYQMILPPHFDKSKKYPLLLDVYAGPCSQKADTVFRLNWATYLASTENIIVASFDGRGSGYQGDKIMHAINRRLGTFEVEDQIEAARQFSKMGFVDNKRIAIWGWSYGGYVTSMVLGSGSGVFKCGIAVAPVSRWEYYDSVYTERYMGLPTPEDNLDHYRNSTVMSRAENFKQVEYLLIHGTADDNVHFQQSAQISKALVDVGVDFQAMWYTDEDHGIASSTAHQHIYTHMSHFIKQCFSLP

With `N#Cc1ccc(F)cc1Cn1c(N2CCC[C@@H](N)C2)cc(=O)[nH]c1=O`, the DPP-IV inhibitory activity entry is reported as “has a DPP-IV inhibitory activity”.

Values taken from patent US20120129878A1, “TABLET” (Takeda Pharmaceutical Company Limited, priority 2009, published 2012).
